# In BindingDB's records for patent US20240335431 (Acerta Pharma, 2024):
# Target: T1, Muscarinic acetylcholine receptor M2 (Homo sapiens, UniProt P08172)
# T1 sequence (P08172 whole entry): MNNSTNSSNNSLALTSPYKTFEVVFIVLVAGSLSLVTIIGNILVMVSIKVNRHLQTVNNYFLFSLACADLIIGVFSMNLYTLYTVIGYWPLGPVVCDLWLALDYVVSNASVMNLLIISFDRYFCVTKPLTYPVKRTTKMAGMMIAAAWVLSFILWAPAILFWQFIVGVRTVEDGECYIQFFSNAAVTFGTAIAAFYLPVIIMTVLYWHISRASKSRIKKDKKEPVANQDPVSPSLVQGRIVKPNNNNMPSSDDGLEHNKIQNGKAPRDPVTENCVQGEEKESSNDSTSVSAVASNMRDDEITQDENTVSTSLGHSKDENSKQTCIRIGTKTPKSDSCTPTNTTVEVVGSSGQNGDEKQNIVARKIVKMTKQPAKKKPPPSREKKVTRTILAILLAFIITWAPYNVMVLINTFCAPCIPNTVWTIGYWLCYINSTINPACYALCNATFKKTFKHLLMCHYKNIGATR
# Assay: Muscarinic M2 Receptor Binding Assay
# Method: Cell membrane homogenates (60 μg protein) were incubated for 60 minutes at 22° C. with 2 nM [3H]AF-DX 384 in the absence or presence of the test compound in a buffer containing 50 mM Tris-HCl (pH 7.4), 120 mM NaCl, 5 mM KCl, 5 mM MgCl2, and 1 mM EDTA. Nonspecific binding was determined in the presence of 1 μM atropine. Following incubation, the samples were filtered rapidly under vacuum through glass fiber filters (GF/B, Packard) presoaked with 0.3% PEI and rinsed several times with ice-cold 50 mM Tris-HCl using a 96-sample cell harvester (Unifilter, Packard). The filters were dried then counted for radioactivity in a scintillation counter (Topcount, Packard) using a scintillation cocktail (Microscint 0, Packard). The results were expressed as a percent inhibition of the control radioligand specific binding, from which the Ki was calculated. Data were analyzed using software developed at Cerep (Hill software) and validated by comparison with data generated by the commercial software SigmaPlot 4.0 for Windows ( 1997 by SPSS Inc.).
row,Ki,SMILES
1,6700 nM,"CCN(C(=O)c1cc(F)ccc1-n1c(C)c(C(=O)C2CCN(C(=O)[C@H]3NC[C@@H]4C[C@@H]43)CC2)c2ccncc21)C(C)C (single isomer, unassigned) [US20240335431, Example 48-1]"

# Target: T2, Menin (Homo sapiens, UniProt O00255)
# T2 sequence (O00255 whole entry): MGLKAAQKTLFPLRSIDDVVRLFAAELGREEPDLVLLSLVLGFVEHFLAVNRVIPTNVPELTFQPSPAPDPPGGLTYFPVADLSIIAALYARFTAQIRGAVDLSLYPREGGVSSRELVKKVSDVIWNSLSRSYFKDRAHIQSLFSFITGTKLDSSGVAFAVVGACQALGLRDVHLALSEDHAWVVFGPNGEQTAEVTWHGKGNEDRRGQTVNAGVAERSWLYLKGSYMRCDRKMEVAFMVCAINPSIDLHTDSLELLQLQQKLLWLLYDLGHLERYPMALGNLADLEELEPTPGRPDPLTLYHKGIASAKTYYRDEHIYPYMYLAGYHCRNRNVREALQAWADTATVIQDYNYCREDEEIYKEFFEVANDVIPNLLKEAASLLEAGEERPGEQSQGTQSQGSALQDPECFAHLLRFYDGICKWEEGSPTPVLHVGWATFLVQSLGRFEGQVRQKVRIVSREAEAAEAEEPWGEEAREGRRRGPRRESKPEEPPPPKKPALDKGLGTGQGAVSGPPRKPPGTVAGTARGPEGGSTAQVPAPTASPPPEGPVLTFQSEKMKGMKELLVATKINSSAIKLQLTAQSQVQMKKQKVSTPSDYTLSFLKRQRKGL
# Assay: Fluorescence Polarization (FP) Assay
# Method: Compounds were tested in a biochemical binding assay using Menin protein at 2 nM (N6his-tev-Menin_4i80, PB-20-1459) and the substrate cRho110-Ahx-MBM1/MBM2 peptide (UbiQ, UbiQ-Q20201030; cRh110-Ahx-[…]-QRVPALLLPPG-NH2) at 1 nM.384 Low volume black plates (Corning #4514) were used. 5 μL/well compound or 3% DMSO was added at 10-fold serial dilutions in DMSO from 10 μM. 5 μL/well cRho110-Ahx-MBM1/MBM2 peptide or binding buffer (50 mM Tris pH 7.5, 50 mM NaCl, 1 mM TCEP, 0.01% BGG, 0.01% Brij-35) was added to all wells. 5 μL/well Menin protein or binding buffer (50 mM Tris pH 7.5, 50 mM NaCl, 1 mM TCEP, 0.01% BGG, 0.01% Brij-35) was added to all wells. Plates were read on an EnVision plate reader (Perkin Elmer) with excitation at 480 nm and emission at 535 nm P+S, and measured every 5 minutes for 180 minutes.
row,IC50,SMILES
1,1970 nM,"CCN(C(=O)c1cc(F)ccc1-n1c(C)c(C(=O)C2CCN(C(=O)[C@H]3NC[C@@H]4C[C@@H]43)CC2)c2ccncc21)C(C)C (single isomer, unassigned) [US20240335431, Example 48-1]"
2,97 nM,"C[C@@H]1COC[C@H](C)N1C(=O)c1cc(F)ccc1-n1cc(C(=O)C2CCN(C(=O)[C@H]3N[C@@H]4CC[C@H]3C4)CC2)c2ccncc21 [US20240335431, Example 35]"
3,24 nM,"CC(C)n1nccc1-c1cc(F)ccc1-n1cc(C(=O)C2CCN(C(=O)[C@H]3N[C@@H]4CC[C@H]3C4)CC2)c2ccncc21 [US20240335431, Example 36]"
4,9 nM,"CC(C)c1ncncc1-c1cc(F)ccc1-n1cc(C(=O)C2CCN(C(=O)[C@H]3N[C@@H]4CC[C@H]3C4)CC2)c2ccncc21 [US20240335431, Example 37]"
5,13 nM,"CC(C)c1ncccc1-c1cc(F)ccc1-n1cc(C(=O)C2CCN(C(=O)[C@H]3N[C@@H]4CC[C@H]3C4)CC2)c2ccncc21 [US20240335431, Example 38]"
6,7 nM,"CC(C)c1ccccc1-c1cc(F)ccc1-n1cc(C(=O)C2CCN(C(=O)[C@H]3N[C@@H]4CC[C@H]3C4)CC2)c2ccncc21 [US20240335431, Example 39]"
7,18 nM,"O=C(c1cn(-c2ccc(F)cc2-c2cncnc2C2CC2)c2cnccc12)C1CCN(C(=O)[C@H]2N[C@@H]3CC[C@H]2C3)CC1 [US20240335431, Example 40]"
8,10 nM,"CC(C)c1ccncc1-c1cc(F)ccc1-n1cc(C(=O)C2CCN(C(=O)[C@H]3N[C@@H]4CC[C@H]3C4)CC2)c2ccncc21 [US20240335431, Example 41]"
9,9 nM,"CC(C)c1ncsc1-c1cc(F)ccc1-n1cc(C(=O)C2CCN(C(=O)[C@H]3N[C@@H]4CC[C@H]3C4)CC2)c2ccncc21 [US20240335431, Example 42]"
10,58 nM,"CC(C)N(C(=O)c1cc(F)ccc1-n1cc(C(=O)C2CCN(C(=O)[C@H]3N[C@@H]4CC[C@H]3C4)CC2)c2c(F)cncc21)C(C)C [US20240335431, Example 44]"
11,34 nM,"CCN(C(=O)c1cc(F)ccc1-n1c(C)c(C(=O)C2CCN(C(=O)[C@H]3N[C@@H]4CC[C@H]3C4)CC2)c2ccncc21)C(C)C [US20240335431, Example 46]"
12,15 nM,"CCN(C(=O)c1cc(F)ccc1-n1c(C)c(C(=O)C2CCN(C(=O)[C@H]3NC[C@@H]4C[C@@H]43)CC2)c2ccncc21)C(C)C [US20240335431, Example 47]"
13,15 nM,"Cc1c(C(=O)C2CCN(C(=O)[C@H]3NC[C@@H]4C[C@@H]43)CC2)c2ccncc2n1-c1ccc(F)cc1-c1cnccc1C(C)C [US20240335431, Example 54]"
14,105 nM,"Cc1c(C(=O)C2CCN(C(=O)[C@@H]3CC[C@H](C)N3)CC2)c2ccncc2n1-c1ccc(F)cc1C(=O)N(C(C)C)C(C)C [US20240335431, Example 60]"
15,76 nM,"Cc1c(C(=O)[C@@H]2CCN(C(=O)[C@@H]3CC[C@H](C)N3)[C@@H](C)C2)c2ccncc2n1-c1ccc(F)cc1C(=O)N(C(C)C)C(C)C [US20240335431, Example 62]"
16,59 nM,"CCN(C(=O)c1cc(F)ccc1-n1c(C)c(C(=O)[C@@H]2CCN(C(=O)[C@@H]3CC[C@H](C)N3)[C@@H](C)C2)c2ccncc21)C(C)C [US20240335431, Example 63]"
17,84 nM,"Cc1c(C(=O)[C@@H]2CCN(C(=O)[C@@H]3CC[C@@H](C)N3)[C@@H](C)C2)c2ccncc2n1-c1ccc(F)cc1C(=O)N(C(C)C)C(C)C [US20240335431, Example 64]"
18,79 nM,"CCN(C(=O)c1cc(F)ccc1-n1c(C)c(C(=O)[C@@H]2CCN(C(=O)[C@@H]3CC[C@@H](C)N3)[C@@H](C)C2)c2ccncc21)C(C)C [US20240335431, Example 65]"
